≈ marks a conversion by molar mass, not a printed value.
Tests used:
[1] = biological target: S. pneumoniae Topoisomerase IV ATPase (ParE) (Streptococcus pneumoniae serotype 4, UniProt Q59961); experiment: S. pneumoniae Topoisomerase IV ATPase inhibition; type: biochemical; conditions: values marked * are an average of two or more data points; for inhibition at 13 µM: read-out: % Inh (13 μM) of S. pneumoniae Topoisomerase IV ATPase
How it was run: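 S. pneumoniae ParE (1.25 nM) ATPase with 160 μM ATP and 5 μg/ml sheared DNA in pH 8.0 Tris, Mg2+, DTT, Brij-35; phosphate detected by malachite green/molybdate at 650 nm. Normalised to 2% DMSO (0%) and 20 μM EDTA (100%); IC50 from 10 concentrations.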

Mca 445 (gram−) = experiment: Bacterial susceptibility testing in liquid media (MIC); type: cell-based; conditions: Moraxella catarrhalis; lowest concentration reducing growth by 80% or more; 37° C., 24 hrs
Excerpt: (§1) Compounds may be tested for antimicrobial activity by susceptibility testing in liquid media. Compounds may be dissolved in dimethylsulfoxide and tested in 10 doubling dilutions in the susceptibility assays. The organisms used in the assay may be grown overnight on suitable agar media and then suspended in a liquid medium appropriate for the growth of the organism. The suspension can be a 0.5 McFarland and a further 1 in 10 dilution can be made into the same liquid medium to prepare the final organism suspension in 100 μL. Plates can be incubated under appropriate conditions at 37° C. for 24 hrs prior to reading. The Minimum Inhibitory Concentration (MIC) may be determined as the lowest drug concentration able to reduce growth by 80% or more.

Spn 548 (gram+) = experiment: as above; type: cell-based; conditions: Streptococcus pneumoniae; lowest concentration reducing growth by 80% or more; 37° C., 24 hrs
Excerpt: as §1

Spy 838 (gram+) = experiment: as above; type: cell-based; conditions: Streptococcus pyogenes; lowest concentration reducing growth by 80% or more; 37° C., 24 hrs
Excerpt: as §1

S. pneumoniae Topoisomerase IV ATPase (ParE), sequence (Q59961 whole entry): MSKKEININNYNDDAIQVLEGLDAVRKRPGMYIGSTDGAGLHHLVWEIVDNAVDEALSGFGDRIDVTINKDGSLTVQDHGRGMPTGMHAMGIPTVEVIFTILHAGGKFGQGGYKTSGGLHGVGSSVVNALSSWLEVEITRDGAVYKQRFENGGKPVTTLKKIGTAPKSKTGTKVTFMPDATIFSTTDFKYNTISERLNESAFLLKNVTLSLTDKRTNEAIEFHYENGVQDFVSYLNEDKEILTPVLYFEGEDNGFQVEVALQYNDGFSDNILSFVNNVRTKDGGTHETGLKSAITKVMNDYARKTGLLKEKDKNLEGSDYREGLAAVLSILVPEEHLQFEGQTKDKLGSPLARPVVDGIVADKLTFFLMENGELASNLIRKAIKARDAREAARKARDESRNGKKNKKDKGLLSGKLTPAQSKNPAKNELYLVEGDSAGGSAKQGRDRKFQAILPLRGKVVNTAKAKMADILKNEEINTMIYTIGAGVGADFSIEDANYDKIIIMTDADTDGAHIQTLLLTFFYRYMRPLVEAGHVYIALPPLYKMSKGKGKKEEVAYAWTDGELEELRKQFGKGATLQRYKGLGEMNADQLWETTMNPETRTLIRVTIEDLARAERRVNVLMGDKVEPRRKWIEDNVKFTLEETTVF

NCCCNc1nc(Nc2ccc(F)c(Cl)c2)ncc1-c1cncnc1 [Ex 211]
inhibition at 13 µM [1]: 76.6% | MIC (Mca 445 (gram−)): 12.5 µM (≈ 4.67 µg/mL) | MIC (Spn 548 (gram+)): 25 µM (≈ 9.35 µg/mL) | MIC (Spy 838 (gram+)): 25 µM (≈ 9.35 µg/mL)

Fc1ccc(Nc2ncc(-c3cncnc3)c(NCCc3ccncc3)n2)cc1Cl [Example 46, N^2-(3-chloro-4-fluorophenyl)-N^4-(2-pyridin-4-ylethyl)-5-pyrimidin-5-ylpyrimidine-2,4-diamine]
inhibition at 13 µM [1]: 93.5% | MIC (Mca 445 (gram−)): 3.13 µM (≈ 1.32 µg/mL) | MIC (Spn 548 (gram+)): 3.13 µM (≈ 1.32 µg/mL) | MIC (Spy 838 (gram+)): 8.84 µM (≈ 3.73 µg/mL)

O=C(O)c1ccc(-c2cnc(Nc3ccc(F)c(Cl)c3)nc2N2CCOCC2)s1 [Example 176, 5-(2-(3-chloro-4-fluorophenylamino)-4-morpholinopyrimidin-5-yl)thiophene-2-carboxylic acid]
inhibition at 13 µM [1]: 89% | MIC (Mca 445 (gram−)): 0.78 µM (≈ 0.339 µg/mL) | MIC (Spn 548 (gram+)): 6.25 µM (≈ 2.72 µg/mL) | MIC (Spy 838 (gram+)): 12.5 µM (≈ 5.44 µg/mL)

COCCn1cc(-c2cnc(Nc3cc(OC)cc(OC)c3)nc2-n2ccc(C(F)(F)F)n2)cc(C(=O)NS(C)(=O)=O)c1=O [Example 1163, 5-(2-(3,5-dimethoxyphenylamino)-4-(3-(trifluoromethyl)-1H-pyrazol-1-yl)pyrimidin-5-yl)-1-(2-methoxyethyl)-N-(methylsulfonyl)-2-oxo-1,2-dihydropyridine-3-carboxamide]
inhibition at 13 µM [1]: 100%

CCS(=O)(=O)NC(=O)c1cc(-c2cnc(Nc3cc(OC)cc(OC)c3)nc2-n2ccc(C(F)(F)F)n2)cn(CCOC)c1=O [Example 1164]
inhibition at 13 µM [1]: 100%

Cc1cc(C)cc(Nc2ncc(-c3cc(C(=O)O)c(=O)n(C)c3)c(-n3nc(C(F)(F)F)cc3C)n2)c1 [Example 1166, 5-(2-(3,5-dimethylphenylamino)-4-(5-methyl-3-(trifluoromethyl)-1H-pyrazol-1-yl)pyrimidin-5-yl)-1-methyl-2-oxo-1,2-dihydropyridine-3-carboxylic acid]
inhibition at 13 µM [1]: 100%

COc1cc(Nc2ncc(-c3cnc(OC)c(C(=O)NOCCN4CCOCC4)c3)c(-n3ccc(C(F)(F)F)n3)n2)cc(OC)c1 [Example 1167, 5-(2-(3,5-dimethoxyphenylamino)-4-(3-(trifluoromethyl)-1H-pyrazol-1-yl)pyrimidin-5-yl)-2-methoxy-N-(2-morpholinoethoxy)nicotinamide]
inhibition at 13 µM [1]: 100%

COCCONC(=O)c1cc(-c2cnc(Nc3cc(OC)cc(OC)c3)nc2-n2ccc(C(F)(F)F)n2)cnc1OC [Example 1168, 5-(2-(3,5-dimethoxyphenylamino)-4-(3-(trifluoromethyl)-1H-pyrazol-1-yl)pyrimidin-5-yl)-2-methoxy-N-(2-methoxyethoxy)nicotinamide]
inhibition at 13 µM [1]: 100%

COc1cc(C)cc(Nc2ncc(-c3cnc(OC)c(-c4n[nH]c(=O)o4)c3)c(-n3ccc(C(F)(F)F)n3)n2)c1 [Example 1169, 5-(2-methoxy-5-{2-[(3-methoxy-5-methylphenyl)amino]-4-[3-(trifluoromethyl)-1H-pyrazol-1-yl]pyrimidin-5-yl}pyridin-3-yl)-1,3,4-oxadiazol-2(3H)-one]
inhibition at 13 µM [1]: 100%

COc1cc(C)cc(Nc2ncc(-c3cnc(OC)c(-c4n[nH]c(=O)o4)c3)c(-n3nc(C(F)(F)F)cc3C)n2)c1 [Example 1170, 5-(2-methoxy-5-{2-[(3-methoxy-5-methylphenyl)amino]-4-[5-methyl-3-(trifluoromethyl)-1H-pyrazol-1-yl]pyrimidin-5-yl}pyridin-3-yl)-1,3,4-oxadiazol-2(3H)-one]
inhibition at 13 µM [1]: 100%

CCn1cc(-c2cnc(Nc3cc(C)cc(OC)c3)nc2-n2ccc(C(F)(F)F)n2)cc(C(=O)O)c1=O [Example 1172, 1-ethyl-5-{2-[(3-methoxy-5-methylphenyl)amino]-4-[3-(trifluoromethyl)-1H-pyrazol-1-yl]pyrimidin-5-yl}-2-oxo-1,2-dihydropyridine-3-carboxylic acid]
inhibition at 13 µM [1]: 100%

COc1cc(C)cc(Nc2ncc(-c3cc(C(=O)NS(C)(=O)=O)c(=O)n(C)c3)c(-n3ccc(C(F)(F)F)n3)n2)c1 [Example 1173, 5-{2-[(3-methoxy-5-methylphenyl)amino]-4-[3-(trifluoromethyl)-1H-pyrazol-1-yl]pyrimidin-5-yl}-1-methyl-N-(methylsulfonyl)-2-oxo-1,2-dihydropyridine-3-carboxamide]
inhibition at 13 µM [1]: 100%

COc1cc(C)cc(Nc2ncc(-c3cc(C(=O)NS(C)(=O)=O)c(=O)n(C)c3)c(-n3nc(C(F)(F)F)cc3C)n2)c1 [Example 1174, 5-{2-[(3-methoxy-5-methylphenyl)amino]-4-[5-methyl-3-(trifluoromethyl)-1H-pyrazol-1-yl]pyrimidin-5-yl}-1-methyl-N-(methylsulfonyl)-2-oxo-1,2-dihydropyridine-3-carboxamide]
inhibition at 13 µM [1]: 100%

CCn1cc(-c2cnc(Nc3cc(C)cc(OC)c3)nc2-n2ccc(C(F)(F)F)n2)cc(C(=O)NS(C)(=O)=O)c1=O [Example 1175, 1-ethyl-5-{2-[(3-methoxy-5-methylphenyl)amino]-4-[3-(trifluoromethyl)-1H-pyrazol-1-yl]pyrimidin-5-yl}-N-(methylsulfonyl)-2-oxo-1,2-dihydropyridine-3-carboxamide]
inhibition at 13 µM [1]: 99%

CCn1cc(-c2cnc(Nc3cc(C)cc(OC)c3)nc2-n2nc(C(F)(F)F)cc2C)cc(C(=O)NS(C)(=O)=O)c1=O [Example 1176, 1-ethyl-5-{2-[(3-methoxy-5-methylphenyl)amino]-4-[5-methyl-3-(trifluoromethyl)-1H-pyrazol-1-yl]pyrimidin-5-yl}-N-(methylsulfonyl)-2-oxo-1,2-dihydropyridine-3-carboxamide]
inhibition at 13 µM [1]: 100%

COc1cc(Nc2ncc(-c3cncc(C(=O)O)c3)c(-n3nc(C(F)F)cc3C)n2)cc(OC)c1 [Intermediate 1126, 5-(4-(3-(difluoromethyl)-5-methyl-1H-pyrazol-1-yl)-2-(3,5-dimethoxyphenylamino)pyrimidin-5-yl)nicotinic acid]
inhibition at 13 µM [1]: 100%

(E)-3-{3-[2-(3- Methoxy-5- tetrazol-1-yl- phenylamino)- 4-morpholin-4- yl-pyrimnidin-5- yl]-phenyl}- acrylic acid [Example 406]
% Inh (13 μM) of S. pneumoniae Topoisomerase IV ATPase [1]: 99%

Reference: patent US20100137313A1 (ASTRAZENECA AB, priority 2008, published 2010)
